Patent publication US20050043304A1, “Novel amine derivative having human beta-tryptase inhibitory activity and drugs containing the same” (priority 2001, published 2005)

Target: T1, β-tryptase (Homo sapiens, UniProt Q15661)
T1 construct: purchased Promega Corporation
Assay: β-Tryptase Inhibition Test
Type: biochemical
Settings: not given
Experimental: Sixty μL of a tris-hydrochloric acid buffer (pH 7.5, containing 200 ng/mL of heparin) was added to 20 μL of β-tryptase (manufactured by Promega Corporation) adjusted to 100 ng/mL with the same buffer. Then, 1 μL of a dimethyl sulfoxide (hereinafter, abbreviated to DMSO) solution as a test compound adjusted to a concentration 100 times as high as the final concentration was added to the mixture. After that, 20 μL of a 0.5 mM synthetic substrate Boc-Phe-Ser-Arg-MCA (manufactured by Peptide Institute, Inc) was added to the mixture, and the whole was reacted at 25° C. for 1 hour, followed by the addition of 100 μL of 20% acetic acid for stopping the reaction. Measured was fluorescence of free MCA generated by laser light with an excitation wavelength of 355 nm (fluorescent wavelength=460 nm, hereinafter abbreviated to F 460 nm).
Δ fluorescence count value (a fluorescence count value after an enzyme reaction—a fluorescence count value before the enzyme reaction) was used for a measure of an enzyme inhibition reaction of a drug, and the enzyme inhibition reaction was evaluated in terms of a suppression rate calculated by the following equation.
A=Δ F 460 nm of a mixture (control) of a substrate containing 1% DMSO and an enzyme
B=Δ F 460 nm of a mixture of a substrate containing a drug dissolved in DMSO and an enzyme
C=Δ F 460 nm of a mixture (blank) containing 1% DMSO and a substrate
Suppression rate (%)=(A−B)×100/(A−C)
The β-tryptase inhibitory activity was measured by the method described above.

T1 sequence (Q15661 31-275): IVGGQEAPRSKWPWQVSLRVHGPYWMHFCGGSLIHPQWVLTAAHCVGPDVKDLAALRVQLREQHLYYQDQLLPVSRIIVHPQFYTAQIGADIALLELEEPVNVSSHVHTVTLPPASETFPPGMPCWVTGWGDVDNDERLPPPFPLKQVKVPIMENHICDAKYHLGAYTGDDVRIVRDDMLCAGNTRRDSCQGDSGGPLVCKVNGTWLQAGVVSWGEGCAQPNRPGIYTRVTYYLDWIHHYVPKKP

SMILES	IC50
NCc1ccc(CCCNCCNS(=O)(=O)c2ccc3ccccc3c2)cc1 [Compound 1]	86 nM
CN(CCCc1ccc(CN)cc1)CCNS(=O)(=O)c1ccc2ccccc2c1 [Compound 17]	120 nM

Same assay, conditions: Enzyme Inhibition IC50 Tryptase, selectivity test, Table 7

SMILES	IC50
NCc1ccc(CCCNCCNS(=O)(=O)c2ccc3ccccc3c2)cc1 [Compound 1]	86 nM
CN(CCCc1ccc(CN)cc1)CCNS(=O)(=O)c1ccc2ccccc2c1 [Compound 17]	120 nM

Same assay, conditions: Tryptase Inhibiting Activity IC50, substrate Boc-Phe-Ser-Arg-MCA, 25° C., 1 hour

IC50	SMILES
190 nM	NCc1ccc(CCCNCCNS(=O)(=O)c2ccc3c(c2)CNCC3)cc1 [Compound 9]
200 nM	NCc1ccc(CCCNCCNS(=O)(=O)c2ccc3c(c2)CCC3)cc1 [Compound 7]
210 nM	NCc1ccc(CCCNCCNS(=O)(=O)c2ccc3sccc3c2)cc1 [Compound 5]

Same assay, conditions: read-out: β-tryptase inhibitory activity in terms of IC50

IC50	SMILES
≤ 10 nM	CN(CCCc1ccc(CN)cc1)CCNC(=O)c1ccc2cc(Br)ccc2c1 [compound 41]
≤ 10 nM	Cc1ccc2[nH]c(C(=O)NCCN(C)CCCc3ccc(CN)cc3)cc2c1 [compound 55]
≤ 10 nM	CN(CCCc1ccc(CN)cc1)CCNC(=O)c1ccc2c(ccn2C)c1 [compound 73]
≤ 10 nM	CN(CCCc1ccc(CN)cc1)CCNC(=O)c1ccc2cc[nH]c2c1 [compound 53]
≤ 10 nM	CN(CCCc1ccc(CN)cc1)CCNC(=O)c1cc2cc(Cl)ccc2[nH]1 [compound 58]
≤ 10 nM	CN(CCCc1ccc(CN)cc1)CCN(C)C(=O)c1cc2cc(Cl)ccc2[nH]1 [compound 87]
≤ 10 nM	CN(CCCc1ccc(CN)cc1)CCNC(=O)c1cc2cc(Br)ccc2[nH]1 [compound 61]
≤ 10 nM	CC(=O)c1ccc2[nH]c(C(=O)NCCN(C)CCCc3ccc(CN)cc3)cc2c1 [compound 70]

Same assay, conditions: selectivity test, Table 7; read-out: Enzyme Inhibition IC50 Tryptase

IC50	SMILES
5 nM	Cc1ccc2[nH]c(C(=O)NCCN(C)CCCc3ccc(CN)cc3)cc2c1 [Compound 55]
8 nM	CN(CCCc1ccc(CN)cc1)CCNC(=O)c1ccc2cc(Br)ccc2c1 [Compound 41]
6 nM	CN(CCCc1ccc(CN)cc1)CCNC(=O)c1cc2cc(Cl)ccc2[nH]1 [Compound 58]
8 nM	CC(=O)c1ccc2[nH]c(C(=O)NCCN(C)CCCc3ccc(CN)cc3)cc2c1 [Compound 70]
6 nM	CN(CCCc1ccc(CN)cc1)CCNC(=O)c1cc2cc(Br)ccc2[nH]1 [Compound 61]
150 nM	NCc1ccc(CCCNCCNC(=O)c2ccc3ccccc3c2)cc1 [Compound 11]
15 nM	CN(CCCc1ccc(CN)cc1)CCNC(=O)c1cc2cc(OCc3ccccc3)ccc2[nH]1 [Compound 72]

Same assay, conditions: substrate Boc-Phe-Ser-Arg-MCA, 25° C., 1 hour; read-out: Tryptase Inhibiting Activity IC50

IC50	SMILES
440 nM	NCc1ccc(CCCN(CCNS(=O)(=O)c2ccc3ccccc3c2)CCC(=O)O)cc1 [Compound 33]
55 nM	CN(CCCc1ccc(CN)cc1)CCNC(=O)c1cc2cc(C(=O)O)ccc2[nH]1 [Compound 69]
20 nM	CN(CCCc1ccc(CN)cc1)CCNC(=O)c1cc2ccccc2o1 [Compound 45]
5 nM	Cc1ccc2[nH]c(C(=O)NCCN(C)CCCc3ccc(CN)cc3)cc2c1 [Compound 55]
15 nM	CN(CCCc1ccc(CN)cc1)CCNC(=O)c1sc2ccccc2c1Cl [Compound 49]
200 nM	CN(CCCc1ccc(CN)s1)CCNC(=O)c1cc2ccccc2s1 [Compound 90]
73 nM	CN(CCCc1ccc(CN)cc1)CCNC(=O)c1nc2ccccc2s1 [Compound 77]
1 nM	CN(CCCc1ccc(CN)cc1)CCN(C)C(=O)c1cc2cc(Cl)ccc2[nH]1 [Compound 87]
140 nM	CN(CCCc1ccc(CN)nc1)CCNC(=O)c1ccc2[nH]ccc2c1 [Compound 89]
190 nM	NCc1ccc(CCCNCCNC(=O)c2ccc3ncccc3c2)cc1 [Compound 13]
20 nM	CN(CCCc1ccc(CN)cc1)CCNC(=O)c1ccc2ncsc2c1 [Compound 78]
15 nM	CN(CCCc1ccc(CN)cc1)CCNS(=O)(=O)c1ccc2ccccc2c1Cl [Compound 20]
100 nM	CN(CCCc1ccc(CN)cc1)CCNC(=O)c1c[nH]c2ccccc12 [Compound 51]
310 nM	CN(CCCc1ccc(CN)cc1)CCNCc1cc2ccccc2s1 [Compound 91]
6 nM	CN(CCCc1ccc(CN)cc1)CCNC(=O)c1cc2cc(Br)ccc2[nH]1 [Compound 61]
5 nM	CN(CCCc1ccc(CN)cc1)CCNC(=O)c1ccc2cc[nH]c2c1 [Compound 53]
150 nM	NCc1ccc(CCCNCCNC(=O)c2ccc3ccccc3c2)cc1 [Compound 11]
1 nM	CN(CCCc1ccc(CN)cc1)CCNC(=O)c1ccc2c(ccn2C)c1 [Compound 73]
14 nM	CN(CCCc1ccc(CN)cc1)CCNC(=O)c1cc2cc(F)ccc2[nH]1 [Compound 62]
32 nM	CN(CCCc1ccc(CN)cc1)CCNC(=O)c1cc2cc(C(F)(F)F)ccc2[nH]1 [Compound 63]
64 nM	CN(CCCc1ccc(CN)cc1)CCNC(=O)c1ccc2occc2c1 [Compound 46]
140 nM	CCN(CCCc1ccc(CN)cc1)CCNS(=O)(=O)c1ccc2ccccc2c1 [Compound 18]

System: trypsin
Assay: Trypsin Inhibition Test
Type: biochemical
Settings: substrate S-2222, 37° C., 20 minutes; read-out: Enzyme Inhibition IC50 Trypsin
Experimental: Added to 158 μL of a 20 mM tris-hydrochloric acid buffer (pH 7.5, containing 130 mM NaCl, 3.75 mM CaCl2, and 0.1% BSA) was 20 μL of a trypsin solution (manufactured by Sigma, a stock solution of […] was adjusted to 100 ng/mL with 0.001 N HCl containing 0.1% BSA). After that, 2 μL of a DMSO solution as a test compound adjusted to a concentration 100 times as high as the final concentration was added to the mixture, and the whole was reacted at 37° C. for 3 minutes. Then, 20 μL of a 2 mM synthetic substrate S-2222 (manufactured by Daiichi Pure Chemicals Co., Ltd.) was added to the mixture, and the whole was reacted at 37° C. for an additional 20 minutes, followed by addition of 100 μL of 20% acetic acid for stopping the reaction. After that, absorbance at 405 nm (hereinafter, abbreviated to OD 405 nm) was measured with a microplate reader.

IC50	SMILES
> 100000 nM	Cc1ccc2[nH]c(C(=O)NCCN(C)CCCc3ccc(CN)cc3)cc2c1 [Compound 55]
> 100000 nM	CN(CCCc1ccc(CN)cc1)CCNC(=O)c1ccc2cc(Br)ccc2c1 [Compound 41]
> 100000 nM	NCc1ccc(CCCNCCNS(=O)(=O)c2ccc3ccccc3c2Cl)cc1 [Compound 4]
> 100000 nM	CN(CCCc1ccc(CN)cc1)CCNC(=O)c1cc2cc(Cl)ccc2[nH]1 [Compound 58]
> 100000 nM	CC(=O)c1ccc2[nH]c(C(=O)NCCN(C)CCCc3ccc(CN)cc3)cc2c1 [Compound 70]
> 100000 nM	CN(CCCc1ccc(CN)cc1)CCNC(=O)c1cc2cc(Br)ccc2[nH]1 [Compound 61]
> 30000 nM	NCc1ccc(CCCNCCNC(=O)c2ccc3ccccc3c2)cc1 [Compound 11]
> 100000 nM	CN(CCCc1ccc(CN)cc1)CCNC(=O)c1cc2cc(OCc3ccccc3)ccc2[nH]1 [Compound 72]

SMILES	IC50
NCc1ccc(CCCNCCNS(=O)(=O)c2ccc3ccccc3c2)cc1 [Compound 1]	> 100000 nM
CN(CCCc1ccc(CN)cc1)CCNS(=O)(=O)c1ccc2ccccc2c1 [Compound 17]	> 30000 nM

Target: T2, FXa (Homo sapiens, UniProt P00742)
T2 construct: FXa (manufactured by Enzyme Research Ltd.); purchased Enzyme Research Ltd
T2 sequence (P00742 235-488 limits assumed): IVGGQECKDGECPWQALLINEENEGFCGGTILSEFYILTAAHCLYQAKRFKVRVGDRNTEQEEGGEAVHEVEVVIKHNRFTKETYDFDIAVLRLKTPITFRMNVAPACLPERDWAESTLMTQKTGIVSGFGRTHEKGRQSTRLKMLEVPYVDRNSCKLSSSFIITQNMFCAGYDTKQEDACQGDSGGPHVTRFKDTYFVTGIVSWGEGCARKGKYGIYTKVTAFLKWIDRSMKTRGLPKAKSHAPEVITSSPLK
T2 sequence (P00742 41-179 partner limits assumed): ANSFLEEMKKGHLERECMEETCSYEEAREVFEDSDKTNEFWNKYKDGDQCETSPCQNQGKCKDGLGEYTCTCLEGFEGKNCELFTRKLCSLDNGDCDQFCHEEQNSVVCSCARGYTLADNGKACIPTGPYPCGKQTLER
Assay: FXa Inhibition Test
Type: biochemical
Settings: read-out: FXa inhibiting activity in terms of IC50
Experimental: 158 μL of a 20 mM tris-hydrochloric acid buffer (pH 7.5, containing 130 mM NaCl, 3.75 mM CaCl2, and 0.1% BSA) was placed on a 96 well microplate, and 20 μL of FXa (manufactured by Enzyme Research Ltd.) adjusted to 0.1 U/mL with the buffer was added to the buffer. Then, 2 μL of a DMSO solution as a test compound adjusted to a concentration 100 times as high as the final concentration was added to the mixture, and the whole was reacted at 37° C. for 3 minutes. After that, 20 μL of an S-2222 substrate solution adjusted to 2 mM with the buffer was added to the mixture, and the whole was reacted at 37° C. for 30 minutes, followed by addition of 100 μL of 20% acetic acid for stopping the reaction. After that, OD 405 nm was measured with a microplate reader.

IC50	SMILES
≥ 100000 nM	CN(CCCc1ccc(CN)cc1)CCNC(=O)c1ccc2cc(Br)ccc2c1 [compound 41]
≥ 100000 nM	Cc1ccc2[nH]c(C(=O)NCCN(C)CCCc3ccc(CN)cc3)cc2c1 [compound 55]
≥ 100000 nM	NCc1ccc(CCCNCCNS(=O)(=O)c2ccc3ccccc3c2Cl)cc1 [compound 4]
≥ 100000 nM	CN(CCCc1ccc(CN)cc1)CCNC(=O)c1cc2cc(Cl)ccc2[nH]1 [compound 58]
≥ 100000 nM	CN(CCCc1ccc(CN)cc1)CCNC(=O)c1cc2cc(Br)ccc2[nH]1 [compound 61]
≥ 100000 nM	CC(=O)c1ccc2[nH]c(C(=O)NCCN(C)CCCc3ccc(CN)cc3)cc2c1 [compound 70]

Same assay, conditions: substrate S-2222, 37° C., 30 minutes; read-out: Enzyme Inhibition IC50 FXa

IC50	SMILES
> 100000 nM	Cc1ccc2[nH]c(C(=O)NCCN(C)CCCc3ccc(CN)cc3)cc2c1 [Compound 55]
> 100000 nM	CN(CCCc1ccc(CN)cc1)CCNC(=O)c1ccc2cc(Br)ccc2c1 [Compound 41]
> 100000 nM	NCc1ccc(CCCNCCNS(=O)(=O)c2ccc3ccccc3c2Cl)cc1 [Compound 4]
> 100000 nM	CN(CCCc1ccc(CN)cc1)CCNC(=O)c1cc2cc(Cl)ccc2[nH]1 [Compound 58]
> 100000 nM	CC(=O)c1ccc2[nH]c(C(=O)NCCN(C)CCCc3ccc(CN)cc3)cc2c1 [Compound 70]
> 100000 nM	CN(CCCc1ccc(CN)cc1)CCNC(=O)c1cc2cc(Br)ccc2[nH]1 [Compound 61]
> 30000 nM	NCc1ccc(CCCNCCNC(=O)c2ccc3ccccc3c2)cc1 [Compound 11]
> 100000 nM	CN(CCCc1ccc(CN)cc1)CCNC(=O)c1cc2cc(OCc3ccccc3)ccc2[nH]1 [Compound 72]

SMILES	IC50
NCc1ccc(CCCNCCNS(=O)(=O)c2ccc3ccccc3c2)cc1 [Compound 1]	> 100000 nM
CN(CCCc1ccc(CN)cc1)CCNS(=O)(=O)c1ccc2ccccc2c1 [Compound 17]	> 30000 nM

System: not given
Assay: not given
Settings: not given

melting point	SMILES
264.3 to 265.6 °C	NCc1ccc(CCCNCCNS(=O)(=O)c2ccc3ccccc3c2Cl)cc1 [Compound 4]
233.9 to 234.5 °C	NCc1ccc(CCCNCCNS(=O)(=O)c2ccc3c(c2)CNCC3)cc1 [Compound 9]
166.4 to 170 °C	CN(CCCc1ccc(CN)cc1)CCNC(=O)c1cc2cc(Cl)ccc2[nH]1 [Compound 58]
190.2 to 191.4 °C	CN(CCCc1ccc(CN)cc1)CCN(C)C(=O)c1cc2cc(Cl)ccc2[nH]1 [Compound 87]
269.5 to 271.2 °C	NCc1ccc(CCCNCCNC(=O)c2ccc3ncccc3c2)cc1 [Compound 13]
221.5 to 222.7 °C	CN(CCCc1ccc(CN)cc1)CCNS(=O)(=O)c1ccc2ccccc2c1Cl [Compound 20]
199 to 199.7 °C	NCc1ccc(CCCNCCNS(=O)(=O)c2ccc3c(c2)CCC3)cc1 [Compound 7]
69.7 to 72.2 °C	NCc1ccc(CCCNCCNC(=O)c2ccc3ccccc3c2)cc1 [Compound 11]
264.2 to 265.4 °C	NCc1ccc(CCCNCCNS(=O)(=O)c2ccc3sccc3c2)cc1 [Compound 5]

SMILES	melting point
CN(CCCc1ccc(CN)cc1)CCNS(=O)(=O)c1ccc2ccccc2c1 [Compound 17]	91.6 to 92 °C
